From US20230339937A1, “CONDENSED RING COMPOUNDS THAT INHIBIT H-PGDS” (SATO PHARMACEUTICAL CO., LTD., priority 2020, published 2023)

Biological target: T1, Recombinant human H-PGDS (Homo sapiens, UniProt O60760)
T1 construct: made in house; host or cells: E. coli
Assay: H-PGDS inhibitory activity (prostaglandin D2 production from prostaglandin H2, measured by LC-MS/MS)
Format: biochemical
Conditions: recombinant human H-PGDS 1.0 nM expressed in E. coli; prostaglandin H2 25 μM; preincubated 15 minutes on ice, reacted on ice for 1 minute; concentration that inhibits prostaglandin D2 production by 50%
Protocol: The H-PGDS inhibitory activity of each Example compound was measured according to the method reported by LIN, Jiang. et al. (NO 2007/041634).
Recombinant human H-PGDS (final concentration: 1.0 nM) expressed in E. coli was mixed in an assay buffer containing 20 mM Tris-HCl (pH 8.0), 2 mM magnesium chloride, 2 mM reduced glutathione, and 0.5 mg/mL γ-globulin, and 150 μL of the mixture was dispensed into a 8-strip PCR tube (BM Equipment Co., Ltd.). Test compounds (Example compounds) (16.5 μL) at various concentrations dissolved in DMSO were added and the mixture was preincubated for 15 minutes on ice.
Prostaglandin H2 (final concentration: 25 μM) (Cayman Chemical) was dispensed into another 8-strip PCR tube, and the solvent was dried and solidified using a vacuum concentrator (Thermo Fisher Scientific). To the dried and solidified prostaglandin H2 was added 50 μL of the assay buffer containing H-PGDS and each test compound after the preincubation, and the mixture was reacted on ice for 1 minute. 45 μL of this mixture was added to 45 μL of a stop solution (50 mM aqueous citric acid solution containing iron chloride at a final concentration of 4 mg/mL) to stop the reaction. Then, the reaction solution was deproteinized, added to a 96 square deep well plate (SHONANMARUHACHI STEC Co., Ltd.), and the prostaglandin D2 concentration in the reaction solution was measured by LC-MS/MS. ACQUITY (registered trademark) TQD (Waters) was used as a measuring instrument.
Prostaglandin Da production activity (f) in the group with each test compound when a value obtained by subtracting the amount of production of prostaglandin D2 in the group without enzyme, which is non-specific production of prostaglandin D2, from the amount of production of prostaglandin Da in the group without test compound (DMSO-addition group) in each 8-strip PCR tube is 100% was calculated.

T1 sequence (O60760 whole entry): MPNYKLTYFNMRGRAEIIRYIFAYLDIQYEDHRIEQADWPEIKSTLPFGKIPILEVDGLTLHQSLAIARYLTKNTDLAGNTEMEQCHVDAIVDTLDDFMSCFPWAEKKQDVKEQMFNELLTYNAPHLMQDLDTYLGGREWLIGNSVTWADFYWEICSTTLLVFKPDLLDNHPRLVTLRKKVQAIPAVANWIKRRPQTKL

Compound | IC50
O=C(N[C@@H]1CCC[C@H](O)C1)c1ccc(-c2nccc3occc23)cc1 (relative stereo) [Example 265, 4-(furo[3,2-c]pyridin-4-yl)-N-(cis-3-hydroxycyclohexyl)benzamide] | 4.8 nM
O=C(N[C@@H]1CCC[C@@H](O)C1)c1ccc(-c2nccc3occc23)cc1 (relative stereo) [Example 266, 4-(furo[3,2-c]pyridin-4-yl)-N-(trans-3-hydroxycyclohexyl)benzamide] | 3.8 nM
O=C(N[C@@H]1CC[C@H](O)C1)c1ccc(-c2nccc3occc23)cc1 (relative stereo) [Example 267, 4-(furo[3,2-c]pyridin-4-yl)-N-(cis-3-hydroxycyclopenthyl)benzamide] | 3.1 nM
O=C(N[C@@H]1CC[C@@H](O)C1)c1ccc(-c2nccc3occc23)cc1 (relative stereo) [Example 268, 4-(furo[3,2-c]pyridin-4-yl)-N-(trans-3-hydroxycyclopenthyl)benzamide] | 6.4 nM
O=C(N[C@H]1CCCC[C@H]1O)c1ccc(-c2nccc3occc23)cc1 (relative stereo) [Example 273, 4-(furo[3,2-c]pyridin-4-yl)-N-(cis-2-hydroxycyclohexyl)benzamide] | 2.8 nM
O=C(N[C@H]1CCCC[C@@H]1O)c1ccc(-c2nccc3occc23)cc1 (relative stereo) [Example 274, 4-(furo[3,2-c]pyridin-4-yl)-N-(trans-2-hydroxycyclohexyl)benzamide] | 13 nM
CO[C@H]1CCC[C@@H](NC(=O)c2ccc(-c3nccc4occc34)cc2)C1 (relative stereo) [Example 275, 4-(furo[3,2-c]pyridin-4-yl)-N-(cis-3-methoxycyclohexyl)benzamide] | 1.8 nM
O=C(N[C@@H]1CCC[C@H](O)CC1)c1ccc(-c2nccc3occc23)cc1 (relative stereo) [Example 293, 4-(furo[3,2-c]pyridin-4-yl)-N-(cis-4-hydroxycycloheptyl)benzamide] | 1.6 nM
CNC(=O)c1ccc(-c2nccc3[nH]ccc23)cc1 [Example 1, N-methyl-4-(1H-pyrrolo[3,2-c]pyridin-4-yl)benzamide] | 2.7 nM
CC(C)(O)[C@H]1CC[C@H](NC(=O)c2ccc(-c3nccc4[nH]ccc34)cc2)CC1 [Example 2, N-[trans-4-(2-hydroxypropan-2-yl)cyclohexyl]-4-(1H-pyrrolo[3,2-c]pyridin-4-yl)benzamide] | 0.75 nM
O=C(N[C@H]1CC[C@H](CO)CC1)c1ccc(-c2nccc3[nH]ccc23)cc1 [Example 3, N-[trans-4-(hydroxymethyl)cyclohexyl]-4-(1H-pyrrolo[3,2-c]pyridin-4-yl)benzamide] | 0.63 nM
Cn1ccc2c(-c3ccc(C(=O)N[C@H]4CC[C@H](C(C)(C)O)CC4)cc3)nccc21 [Example 4, N-[trans-4-(2-hydroxypropan-2-yl)cyclohexyl]-4-(1-methyl-1H-pyrrolo[3,2-c]pyridin-4-yl)benzamide] | 7.4 nM
O=C(NC1CCCCC1)c1ccc(-c2nccc3[nH]ccc23)cc1 [Example 5, N-cyclohexyl-4-(1H-pyrrolo[3,2-c]pyridin-4-yl)benzamide] | 1.6 nM
CCCCCCNC(=O)c1ccc(-c2nccc3[nH]ccc23)cc1 [Example 6, N-hexyl-4-(1H-pyrrolo[3,2-c]pyridin-4-yl)benzamide] | 1.8 nM
CCCCNC(=O)c1ccc(-c2nccc3[nH]ccc23)cc1 [Example 7, N-butyl-4-(1H-pyrrolo[3,2-c]pyridin-4-yl)benzamide] | 1.4 nM
O=C(NCc1ccccc1)c1ccc(-c2nccc3[nH]ccc23)cc1 [Example 8, N-benzyl-4-(1H-pyrrolo[3,2-c]pyridin-4-yl)benzamide] | 1 nM
O=C(NCc1ccccn1)c1ccc(-c2nccc3[nH]ccc23)cc1 [Example 9] | 1.5 nM
O=C(NCc1cccnc1)c1ccc(-c2nccc3[nH]ccc23)cc1 [Example 10, N-(pyridin-3-ylmethyl)-4-(1H-pyrrolo[3,2-c]pyridin-4-yl)benzamide] | 1.7 nM
O=C(NCc1ccncc1)c1ccc(-c2nccc3[nH]ccc23)cc1 [Example 11, N-(pyridin-4-ylmethyl)-4-(1H-pyrrolo[3,2-c]pyridin-4-yl)benzamide] | 1.7 nM
O=C(NC1CCCC1)c1ccc(-c2nccc3[nH]ccc23)cc1 [Example 12, N-cyclopenthyl-4-(1H-pyrrolo[3,2-c]pyridin-4-yl)benzamide] | 1.1 nM
O=C(NC1CCC1)c1ccc(-c2nccc3[nH]ccc23)cc1 [Example 13, N-cyclobutyl-4-(1H-pyrrolo[3,2-c]pyridin-4-yl)benzamide] | 0.58 nM

Compound | IC50
O=C(NC1CC1)c1ccc(-c2nccc3[nH]ccc23)cc1 [Example 14, N-cyclopropyl-4-(1H-pyrrolo [3,2-c]pyridin-4-yl)benzamide] | 1.4 nM
CC(C)NC(=O)c1ccc(-c2nccc3[nH]ccc23)cc1 [Example 15, N-isopropyl-4-(1H-pyrrolo[3,2-c]pyridin-4-yl)benzamide] | 0.99 nM
O=C(Nc1ccccc1)c1ccc(-c2nccc3[nH]ccc23)cc1 [Example 16, N-phenyl-4-(1H-pyrrolo[3,2-c]pyridin-4-yl)benzamide] | 1.1 nM
O=C(NCCCCCCO)c1ccc(-c2nccc3[nH]ccc23)cc1 [Example 17, N-(6-hydroxyhexyl)-4-(1H-pyrrolo[3,2-c]pyridin-4-yl)benzamide] | 0.85 nM
O=C(NCC1CC1)c1ccc(-c2nccc3[nH]ccc23)cc1 [Example 18, N-(cyclopropyl-methyl)-4-(1H-pyrrolo[3,2-c]pyridin-4-yl)benzamide] | 1 nM
O=C(NCC1CCCCC1)c1ccc(-c2nccc3[nH]ccc23)cc1 [Example 19, N-(cyclohexyl-methyl)-4-(1H-pyrrolo[3,2-c]pyridin-4-yl)benzamide] | 1 nM
O=C(NCC1CCCO1)c1ccc(-c2nccc3[nH]ccc23)cc1 (stereo not drawn) [Example 20, 4-(1H-pyrrolo[3,2-c]pyridin-4-yl)-N-[(tetrahydrofuran-2-yl)methyl] benzamide] | 0.83 nM
O=C(NCC1CCOC1)c1ccc(-c2nccc3[nH]ccc23)cc1 (stereo not drawn) [Example 21, 4-(1H-pyrrolo[3,2-c]pyridin-4-yl)-N-[(tetrahydrofuran-3-yl)methyl] benzamide] | 0.82 nM
O=C(NCC1CCOCC1)c1ccc(-c2nccc3[nH]ccc23)cc1 [Example 22, 4-(1H-pyrrolo[3,2-c]pyridin-4-yl)-N-[(tetrahydro-2H-pyran-4-yl)methyl] benzamide] | 0.85 nM
COCCNC(=O)c1ccc(-c2nccc3[nH]ccc23)cc1 [Example 23, N-(2-methoxyethyl)-4-(1H-pyrrolo[3,2-c]pyridin-4-yl)benzamide] | 0.79 nM
COCCCNC(=O)c1ccc(-c2nccc3[nH]ccc23)cc1 [Example 24, N-(3-methoxypropyl)-4-(1H-pyrrolo[3,2-c]pyridin-4-yl)benzamide] | 0.56 nM
CC(C)N(CCNC(=O)c1ccc(-c2nccc3[nH]ccc23)cc1)C(C)C [Example 25, N-[2-(diisopropylamino)ethyl]-4-(1H-pyrrolo[3,2-c]pyridin-4-yl)benzamide] | 1.6 nM
O=C(NCc1ccco1)c1ccc(-c2nccc3[nH]ccc23)cc1 [Example 26, N-(furan-2-ylmethyl)-4-(1H-pyrrolo[3,2-c]pyridin-4-yl)benzamide] | 1.7 nM
CCOCCNC(=O)c1ccc(-c2nccc3[nH]ccc23)cc1 [Example 27, N-(2-ethoxyethyl)-4-(1H-pyrrolo[3,2-c]pyridin-4-yl)benzamide] | 0.98 nM
CC(=O)NCCNC(=O)c1ccc(-c2nccc3[nH]ccc23)cc1 [Example 28, N-(2-acetamidoethyl)-4-(1H-pyrrolo[3,2-c]pyridin-4-yl)benzamide] | 1.4 nM
CC(=O)NCCCCNC(=O)c1ccc(-c2nccc3[nH]ccc23)cc1 [Example 29, N-(4-acetamidobutyl)-4-(1H-pyrrolo[3,2-c]pyridin-4-yl)benzamide] | 0.46 nM
O=C(NCCCO)c1ccc(-c2nccc3[nH]ccc23)cc1 [Example 30, N-(3-hydroxypropyl)-4-(1H-pyrrolo[3,2-c]pyridin-4-yl)benzamide] | 0.65 nM
CC(O)CNC(=O)c1ccc(-c2nccc3[nH]ccc23)cc1 (stereo not drawn) [Example 31, N-(2-hydroxypropyl)-4-(1H-pyrrolo[3,2-c]pyridin-4-yl)benzamide] | 1.5 nM
CC(C)(O)CNC(=O)c1ccc(-c2nccc3[nH]ccc23)cc1 [Example 32, N-(2-hydroxy-2-methylpropyl)-4-(1H-pyrrolo[3,2-c]pyridin-4-yl)benzamide] | 1.5 nM
CCC(O)CNC(=O)c1ccc(-c2nccc3[nH]ccc23)cc1 (stereo not drawn) [Example 33, N-(2-hydroxybutyl)-4-(1H-pyrrolo[3,2-c]pyridin-4-yl)benzamide] | 1.1 nM
O=C(NCC(O)CO)c1ccc(-c2nccc3[nH]ccc23)cc1 (stereo not drawn) [Example 34, N-(2,3-dihydroxypropyl)-4-(1H-pyrrolo[3,2-c]pyridin-4-yl)benzamide] | 2.4 nM
